Test system: simian rotavirus SA11 strain
Test: Plaque assay: antiviral action against simian rotavirus in MA104 cells (infection-suppressing ratio)
Type: cell-based
Conditions: human milk oligosaccharide alone, n=3
Experimental: The simian rotavirus SA11 strain (Nihon Bioresearch Inc.) was inoculated to the MA104 cells (Sigma-Aldrich) of African green monkey kidney maintained in a minimum essential medium (Sigma-Aldrich, henceforth referred to simply as “medium”). The simian rotavirus SA11 strain, for example, can be obtained from American Type Culture Collection (ATCC) as ATCC VR-1565. To the medium, lactoferrin (LF) and/or the human milk oligosaccharide(s) shown below were added beforehand alone or in combination at the following concentrations, respectively (n=3).
LF (produced by Morinaga Milk Industry Co., Ltd.): 0, 0.1 or 1.0 mg/mL
2′-Fucosyllactose (2′-FL, Funakoshi Co., Ltd.): 0, 0.1, 0.5, or 2.5 mg/mL
3-Fucosyllactose (3-FL, Funakoshi Co., Ltd.): 0, 0.1, or 0.5 mg/mL
3′-Sialyllactose (3′-SL, Funakoshi Co., Ltd.): 0, 0.1, or 0.5 mg/mL
6′-Sialyllactose (6′-SL, Funakoshi Co., Ltd.): 0, 0.1, or 0.5 mg/mL
Human milk oligosaccharides (mixture) (HMO mix, mixture of 2′-FL (2.5 mg/mL), 3-FL (0.5 mg/mL), 3′-SL (0.25 mg/mL) and 6′-SL (0.5 mg/mL))
The amount of 1.0 mg/mL corresponds to 0.1 mass % in mass percentage.
Degree of infection was evaluated based on the number of “plaques” formed when the cells were infected with the virus. Specifically, the antiviral effects of lactoferrin and human milk oligosaccharides were evaluated based on “plaque-suppressing ratio (%)”, i.e., the ratio of “plaque counts observed with lactoferrin and/or human milk oligosaccharide(s) supplementation” to “plaque counts observed without these supplementation”. Plaque-suppressing ratio was then regarded as “infection-suppressing ratio (%)”.

Row | Compound | infection-suppressing ratio (0.1 mg/mL) [%] | infection-suppressing ratio (0.5 mg/mL) [%]
1 | 2′-Fucosyllactose [2′-FL] | 1.2 | –
2 | 3-Fucosyllactose [3-FL] | 6.6 | 21
3 | CC(=O)N[C@H]1[C@H]([C@H](O)[C@H](O)CO)O[C@@](O[C@H]2[C@@H](O)[C@@H](CO)O[C@@H](O[C@H]3[C@H](O)[C@@H](O)C(O)O[C@@H]3CO)[C@@H]2O)(C(=O)O)C[C@@H]1O (stereo partly drawn) [3′-SL, 3′-Sialyllactose] | – | 33
4 | CC(=O)N[C@H]1[C@H]([C@H](O)[C@H](O)CO)O[C@@](OC[C@H]2O[C@@H](O[C@H]3[C@H](O)[C@@H](O)[C@H](O)O[C@@H]3CO)[C@H](O)[C@@H](O)[C@H]2O)(C(=O)O)C[C@@H]1O [6′-SL, 6′-Sialyllactose] | 4.5 | 23

From patent US20220226382A1, “Nutritional Composition” (MORINAGA MILK INDUSTRY CO., LTD., priority 2019, published 2022)
